In data set [1] the target is T1, CRF1 receptor (Homo sapiens, UniProt P34998).
T1 sequence (P34998 24-415): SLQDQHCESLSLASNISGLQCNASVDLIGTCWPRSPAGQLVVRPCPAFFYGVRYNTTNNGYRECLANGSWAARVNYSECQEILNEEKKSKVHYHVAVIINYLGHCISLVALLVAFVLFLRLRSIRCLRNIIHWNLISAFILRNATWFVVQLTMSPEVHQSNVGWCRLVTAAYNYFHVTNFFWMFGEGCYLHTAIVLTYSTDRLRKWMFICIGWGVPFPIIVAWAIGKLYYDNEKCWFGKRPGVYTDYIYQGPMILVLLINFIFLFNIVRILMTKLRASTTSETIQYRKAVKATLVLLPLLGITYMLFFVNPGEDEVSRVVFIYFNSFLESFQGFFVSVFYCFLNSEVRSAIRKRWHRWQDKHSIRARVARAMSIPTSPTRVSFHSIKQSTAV
As to the kind of experiment: CRF1 receptor binding kinetics (association/dissociation rate constants, method of Fleck et al.). Particulars: for Ki: Ki=k−1/k1, read-out: Kinetic Ki; for k1: association rate constant; for k^−1: dissociation rate constant. Here is the method: The association (k1) and dissociation (k−1) rate constants defining binding of the Compounds to the CRF1 receptor were determined by the method described in Fleck et al. (J. Pharmacology and Experimental Therapeutics, 341(2):518-531, 2012) (hereinafter “Fleck et al.” and incorporated by reference in its entirety). As described therein, the activity of a CRF1 receptor antagonist can be expressed as the kinetically derived affinity (Ki) calculated from the association (k1) and dissociation (k−1) rate constants by the following equation: Ki=k−1/k1
The Compounds listed in Table 5 were evaluated according to these procedures, and the kinetic Ki was determined and found to be as follows: […]

A short description of data set [2]: pKa determination, SiriusT3 UV-metric and pH-metric co-solvent titration. The format is physicochemical. Particulars: water:CH3OH co-solvent mixtures. Here is the method: The pKa was determined using a SiriusT3 (Serial: T317136) with a UV-metric co-solvent titration assay and a pH-metric co-solvent titration assay. For the UV-metric, 10 mM sample was prepared in DMSO with phosphate buffer and placed on the instrument along with a blank prepared with the same composition, absent compound. For pH-metric, an appropriate weight of sample was added to a glass vial to meet buffer capacity requirements, absent of diluent. For each test, pKa was measured in three water:CH3OH ratios. The reported pKas are extrapolated graphically via the Yasuda-Shedlovsky method.

The test system of data set [3] is ADX rats. The experiment in a line: Lowering of ACTH in adrenalectomized rats. The format is in vivo. Particulars: oral, 10 mg/kg single dose, n=11/group.

The text below walks through data of US12686680B2, “Substituted pyrazolo[1,5-α]pyrimidines as CRF receptor antagonists” (Neurocrine Biosciences, Inc., priority 2019, dated 2026).

Usually Ki stands for the dissociation constant of the complex between target and ligand, obtained from inhibition or displacement. With `CCCN(Cc1ccc(-n2cncn2)cc1)c1cc(C)nc2c(-c3cnc(N(C)C)cc3C)c(C)nn12` [Compound 10, 5-{2,5-dimethyl-7-[propyl({[4-(1H-1,2,4-triazol-1-yl)phenyl]methyl})amino]pyrazolo[1,5-a]pyrimidin-3-yl}-N,N,4-trimethylpyridin-2-amine], in data set [1], the Ki was determined as 0.95 nM, the k1 is listed as 2.2 10^6M^−1min^−1 and the “k^−1” value was found to be 0.0021 min⁻¹.
In the same order, the values of `CCCN(Cc1ccc(-c2cccnc2)cc1)c1cc(C)nc2c(-c3cnc(N(C)C)cc3C)c(C)nn12` [Compound 2, 5-{2,5-dimethyl-7-[propyl({[4-(pyridin-3-yl)phenyl]methyl})amino]pyrazolo[1,5-a]pyrimidin-3-yl}-N,N,4-trimethylpyridin-2-amine] are less than 0.19 nM, 5.3 ± 0.78 10^6M^−1min^−1 and less than 0.001 min⁻¹.
As for `CCCN(Cc1ccc(-c2ccccn2)cc1)c1cc(C)nc2c(-c3cnc(N(C)C)cc3C)c(C)nn12` [Compound 3, 5-{2,5-dimethyl-7-[propyl({[4-(pyridin-2-yl)phenyl]methyl})amino]pyrazolo[1,5-a]pyrimidin-3-yl}-N,N,4-trimethylpyridin-2-amine], in data set [1], the Ki was less than 0.36 nM, the k1 is 2.9 ± 0.92 10^6M^−1min^−1 and the “k^−1” value is less than 0.001 min⁻¹.
With `CCCN(Cc1ccc(-c2ccccc2)cc1)c1cc(C)nc2c(-c3cnc(N(C)C)cc3C)c(C)nn12` [Compound 8, 5-(2,5-dimethyl-7-{[(4-phenylphenyl)methyl](propyl)amino}pyrazolo[1,5-a]pyrimidin-3-yl)-N,N,4-trimethylpyridin-2-amine], in data set [1], the Ki was less than 0.12 nM, the k1 is recorded as 9.1 ± 4.1 10^6M^−1min^−1 and the “k^−1” value is less than 0.001 min⁻¹.
A word on the pKa: it is the negative logarithm of the acid dissociation constant. With `CCCN(Cc1ccc(-c2csc(N(C)C)n2)cc1)c1cc(C)nc2c(-c3cnc(N(C)C)cc3C)c(C)nn12` [Compound 1, 5-{7-[({4-[2-(dimethylamino)-1,3-thiazol-4-yl]phenyl}methyl)(propyl)amino]-2,5-dimethylpyrazolo[1,5-a]pyrimidin-3-yl}-N,N,4-trimethylpyridin-2-amine], in data set [2] (UV-metric method, Yasuda-Shedlovsky extrapolation from water:CH3OH), the pKa is 4.07 ± 0.06. In addition, the pKa in data set [2] (overall, two methods) is approximately 4.1. For the same compound, the pKa in data set [2] (pH-metric method, Yasuda-Shedlovsky extrapolation from water:CH3OH) is 4.06 ± 0.08. Also, in data set [1], the Ki was less than 0.22 nM, the k1 was 4.9 ± 1.7 10^6M^−1min^−1 and the “k^−1” value is less than 0.001 min⁻¹. For the same compound, in data set [3], the “duration of lowering of plasma ACTH levels” value was “up to 5 hours” and the “plasma ACTH levels” value is reported as “significantly lowered”.
Regarding `CCCN(Cc1ccc(-c2csc(NC)n2)cc1)c1cc(C)nc2c(-c3cnc(N(C)C)cc3C)c(C)nn12` [Compound 11, 5-{2,5-dimethyl-7-[({4-[2-(methylamino)-1,3-thiazol-4-yl]phenyl}methyl)(propyl)amino]pyrazolo[1,5-a]pyrimidin-3-yl}-N,N,4-trimethylpyridin-2-amine], in data set [1], the Ki came out at 0.72 nM, the k1 is 2.4 +/− 0.2 10^6M^−1min^−1 and the “k^−1” value was 0.0017 min⁻¹.
In the case of `CCCN(Cc1ccc(-n2cccn2)cc1)c1cc(C)nc2c(-c3cnc(N(C)C)cc3C)c(C)nn12` [Compound 9, 5-{2,5-dimethyl-7-[propyl({[4-(1H-pyrazol-1-yl)phenyl]methyl})amino]pyrazolo[1,5-a]pyrimidin-3-yl}-N,N,4-trimethylpyridin-2-amine], in data set [1], the Ki is less than 0.29 nM, the k1 is listed as 3.5 ± 1.1 10^6M^−1min^−1 and the “k^−1” value is less than 0.001 min⁻¹.
